pEC50: −log10 of the molar value.
Key:
[1] = test system: HBV replication in HepAD38 cells; test: Anti-HBV replication assay in HepAD38 cells (QPCR of extracellular HBV DNA); type: cell-based, HBV (genotype D, serotype ayw); details: Hepatitis B virus, 168 h, 7 days incubation, extracellular HBV DNA by QPCR, read-out: Anti-HBV EC50
How it was run: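 Steps: seed HepAD38 overnight without tetracycline; refresh medium and add 1 log10 serial dilutions ([…]); incubate 7 days at 37 °C; quantify supernatant HBV DNA by QPCR; derive EC50 from a 4-parameter dose-response fit.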

[2] = In vitro cytotoxicity assay (MTT cell viability) in HepG2 cells; type: cell-based, human; details: human
How it was run: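 HepG2 seeded overnight, then 7-day compound exposure (30 μM–1.0 nM, half-log steps), 37 °C. MTT 3-4 h, DMSO solubilization, A492. % of vehicle → CC50, 4-PL fit.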

Row | SMILES | pEC50 [1] | CC50 at 7 days [2] [nM]
1 | Cc1c(C(=O)Nc2ccc(F)nc2)c(C)n(C)c1C(=O)C(=O)NC1CCc2nc(N)sc2C1 (stereo not shown) [Example 77, 5-(2-((2-amino-4,5,6,7-tetrahydrobenzo[d]thiazol-6-yl)amino)-2-oxoacetyl)-N-(6-fluoropyridin-3-yl)-1,2,4-trimethyl-1H-pyrrole-3-carboxamide] | 6.30 to 7.30 | > 30000
2 | Cc1cc(NC(=O)c2c(C)c(C(=O)C(=O)N[C@@H](CO)[C@H](C)O)n(C)c2C)ccc1F [Example 103, 5-(2-(((2S,3S)-1,3-dihydroxybutan-2-yl)amino)-2-oxoacetyl)-N-(4-fluoro-3-methylphenyl)-1,2,4-trimethyl-1H-pyrrole-3-carboxamide] | > 7.30 | > 30000
3 | Cc1cc(NC(=O)c2c(C)c(C(=O)C(=O)N[C@@H](C(=O)O)[C@@H](C)O)n(C)c2C)ccc1F [Example 52, (2-(4-((4-fluoro-3-methylphenyl)carbamoyl)-1,3,5-trimethyl-1H-pyrrol-2-yl)-2-oxoacetyl)-D-allothreonine] | < 6.00 | > 30000
4 | Cc1cc(NC(=O)c2c(Cl)c(C(=O)C(=O)NCC(C)(C)CO)n3c2CCC3)cnc1F [Example 577, 6-chloro-N-(6-fluoro-5-methylpyridin-3-yl)-5-(2-((3-hydroxy-2,2-dimethylpropyl)amino)-2-oxoacetyl)-2,3-dihydro-1H-pyrrolizine-7-carboxamide] | < 6.00 | > 30000
5 | Cc1cc(NC(=O)c2cc(C(=O)C(=O)N[C@@H](CO)[C@H](C)O)n3c2CCCC3)ccc1F [Example 417, 3-(2-(((2S,3S)-1,3-dihydroxybutan-2-yl)amino)-2-oxoacetyl)-N-(4-fluoro-3-methylphenyl)-5,6,7,8-tetrahydroindolizine-1-carboxamide] | 6.30 to 7.30 | > 30000
6 | Cc1cc(NC(=O)c2cc(C(=O)C(=O)NC3(CO)CCC3)n3c2CCCC3)ccc1F [Example 410, N-(4-fluoro-3-methylphenyl)-3-(2-((1-(hydroxymethyl)cyclobutyl)amino)-2-oxoacetyl)-5,6,7,8-tetrahydroindolizine-1-carboxamide] | 6.30 to 7.30 | > 30000
7 | Cc1cc(NC(=O)c2c(Cl)c(C(=O)C(=O)NCC(C)(C)CO)n3c2CCCC3)cnc1F [Example 525, 2-chloro-N-(6-fluoro-5-methylpyridin-3-yl)-3-(2-((3-hydroxy-2,2-dimethylpropyl)amino)-2-oxoacetyl)-5,6,7,8-tetrahydroindolizine-1-carboxamide] | < 6.00 | > 30000
8 | Cc1cc(NC(=O)c2c(C)c(C(=O)C(=O)NC3(c4cccs4)CCCCC3)n(C)c2C)ccc1F [Example 633, N-(4-fluoro-3-methylphenyl)-1,2,4-trimethyl-5-(2-oxo-2-((1-(thiophen-2-yl)cyclohexyl)amino)acetyl)-1H-pyrrole-3-carboxamide] | > 7.30 | > 30000
9 | Cc1cc(NC(=O)c2c(C)c(C(=O)C(=O)NC(C)(C)CN3CCOCC3)n(C)c2C)cnc1F [Example 351, N-(6-fluoro-5-methylpyridin-3-yl)-1,2,4-trimethyl-5-(2-((2-methyl-1-morpholiinopropan-2-yl)amino)-2-oxoacetyl)-1H-pyrrole-3-carboxamide] | 6.30 to 7.30 | > 30000
10 | Cc1noc([C@@H](C)NC(=O)C(=O)c2c(Cl)c(C(=O)Nc3ccnc(F)c3)c3n2CCCC3)n1 [Example 510, (R)-2-chloro-N-(2-fluoropyridin-4-yl)-3-(2-((1-(3-methyl-1,2,4-oxadiazol-5-yl)ethyl)amino)-2-oxoacetyl)-5,6,7,8-tetrahydroindolizine-1-carboxamide] | < 6.00 | > 30000
11 | Cc1cc(NC(=O)c2c(C)c(C(=O)C(=O)N[C@H](C(N)=O)C(C)(C)C)n(C)c2C)ccc1F [Example 39, (S)-5-(2-((1-amino-3,3-dimethyl-1-oxobutan-2-yl)amino)-2-oxoacetyl)-N-(4-fluoro-3-methylphenyl)-1,2,4-trimethyl-1H-pyrrole-3-carboxamide] | 6.00 to 6.30 | > 30000
12 | Cc1nc(C2(NC(=O)C(=O)c3c(C)c(C(=O)Nc4ccc(F)c(C)c4)c(C)n3C)CCCC2)no1 [Example 158, N-(4-fluoro-3-methylphenyl)-1,2,4-trimethyl-5-(2-((1-(5-methyl-1,2,4-oxadiazol-3-yl)cyclopentyl)amino)-2-oxoacetyl)-1H-pyrrole--3 carboxamide] | > 7.30 | > 30000
13 | CC(C)(C)NC(=O)C(=O)c1cc(C(=O)Nc2ccc(F)c(C#N)c2)c2n1CCCC2 [Example 392, 3-(2-(tert-butylamino)-2-oxoacetyl)-N-(3-cyano-4-fluorophenyl)-5,6,7,8-tetrahydroindolizine-1-carboxamide] | < 6.00 | 5000 to 30000
14 | Cc1c(C(=O)Nc2ccc(F)c(F)c2)c(C)n(C)c1C(=O)C(=O)NC1(c2nnn[nH]2)CCCC1 [Example 698, 5-(2-((1-(1H-tetrazol-5-yl)cyclopentyl)amino)-2-oxoacetyl)-N-(3,4-difluorophenyl)-1,2,4-trimethyl-1H-pyrrole-3-carboxmide] | 6.30 to 7.30 | > 30000
15 | CC[C@H](CO)NC(=O)C(=O)c1c(C)c(C(=O)Nc2ccc(F)c(C)c2)c(C)n1C [Example 140, (R)-N-(4-fluoro-3-methylphenyl)-5-(2-((1-hydroxybutan-2-yl)amino)-2-oxoacetyl)-1,2,4-trimethyl-1H-pyrrole-3-carboxamide] | > 7.30 | > 30000
16 | Cc1cc(NC(=O)c2c(C)c(C(=O)C(=O)N[C@]3(C)C[C@H](O)C3)n(C)c2C)ccc1F [Example 267, N-(4-fluoro-3-methylphenyl)-5-(2-(((1s,3s)-3-hydroxy-1-methylcyclobutyl)amino)-2-oxoacetyl)-1,2,4-trimethyl-1H-pyrrole-3-carboxamide] | > 7.30 | > 30000
17 | Cc1nc2c(s1)C(NC(=O)C(=O)c1c(C)c(C(=O)Nc3ccc(F)c(C)c3)c(C)n1C)CCC2 (stereo not shown) [Example 355, N-(4-fluoro-3-methylphenyl)-1,2,4-trimethyl-5-(2-((2-methyl-4,5,6,7-tetrahydrobenzo[d]thiazol-7-yl)amino)-2-oxoacetyl)-1H-pyrrole-3-carboxamide] | > 7.30 | > 30000
18 | O=C(N[C@H]1COC[C@@H]1O)C(=O)c1c(Cl)c(C(=O)Nc2ccc(F)c(Cl)c2)c2n1CCC2 [Example 563, 6-chloro-N-(3-chloro-4-fluorophenyl)-5-(2-(((3S,4R)-4-hydroxytetrahydrofuran-3-yl)amino)-2-oxoacetyl)-2,3-dihydro-1H-pyrrolizine-7-carboxamide] | > 7.30 | 5000 to 30000
19 | Cc1cc(NC(=O)c2c(C)c(C(=O)C(=O)N[C@@H]3CCC[C@@H]3O)n(C)c2Cl)ccc1F [Example 390, 2-chloro-N-(4-fluoro-3-methylphenyl)-5-(2-(((1R,2S)-2-hydroxycyclopentyl)amino)-2-oxacetyl)-1,4-dimethyl-1H-pyrrole-3-carboxamide] | 6.30 to 7.30 | > 30000
20 | Cc1cc(NC(=O)c2c(C)c(C(=O)C(=O)NC3(CN4CCOCC4)CCCCC3)n(C)c2C)ccc1F [Example 596, N-(4-fluoro-3-methylphenyl)-1,2,4-trimethyl-5-(2-((1-(morpholinomethyl)cyclohexyl)amino)-2-oxoacetyl)-1H-pyrrole-3-carboxamide] | > 7.30 | > 30000
